# Test results: PMC2763043 (ACS chemical biology, 2009)
# Legend:
# [1] = system: MDA-kb2 cells; assay: Cytotoxicity in MDA-kb2; type: cell-based; settings: Cell-Titer Glo, 20 hours
# [2] = system: AR; settings: cited from earlier work
# [3] = biological target: Androgen Receptor (AR) (Homo sapiens, UniProt P10275); assay: AR transcription reporter assay; type: cell-based; settings: 0.2 nM DHT
# [4] = biological target: T1, AR-LBD (Homo sapiens, UniProt P10275); assay: Scintillation Proximity Assay, [3H]-DHT displacement from AR-LBD; type: binding; settings: SPA
# T1 sequence (P10275 663-919): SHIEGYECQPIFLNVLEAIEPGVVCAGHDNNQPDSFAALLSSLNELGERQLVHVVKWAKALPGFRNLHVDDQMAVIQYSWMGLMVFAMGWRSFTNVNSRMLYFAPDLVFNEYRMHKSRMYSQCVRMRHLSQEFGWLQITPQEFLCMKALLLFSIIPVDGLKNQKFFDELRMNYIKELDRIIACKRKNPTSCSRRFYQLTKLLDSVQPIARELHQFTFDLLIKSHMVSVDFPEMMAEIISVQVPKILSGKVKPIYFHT
# [5] = PAMPA permeability and membrane retention; settings: 0.5% DMSO, pH 7.4
# [6] = system: FKBP51; assay: Real time rt-PCR of FKBP51, 18S and GAPDH in MDA-kb2; type: cell-based; settings: 0.2 nM DHT, MDA-kb2, control experiments
# [7] = in vitro; settings: PAMPA, pH 7.4
# Chain of Androgen Receptor (AR) (P10275 whole entry, the tested form may be a part): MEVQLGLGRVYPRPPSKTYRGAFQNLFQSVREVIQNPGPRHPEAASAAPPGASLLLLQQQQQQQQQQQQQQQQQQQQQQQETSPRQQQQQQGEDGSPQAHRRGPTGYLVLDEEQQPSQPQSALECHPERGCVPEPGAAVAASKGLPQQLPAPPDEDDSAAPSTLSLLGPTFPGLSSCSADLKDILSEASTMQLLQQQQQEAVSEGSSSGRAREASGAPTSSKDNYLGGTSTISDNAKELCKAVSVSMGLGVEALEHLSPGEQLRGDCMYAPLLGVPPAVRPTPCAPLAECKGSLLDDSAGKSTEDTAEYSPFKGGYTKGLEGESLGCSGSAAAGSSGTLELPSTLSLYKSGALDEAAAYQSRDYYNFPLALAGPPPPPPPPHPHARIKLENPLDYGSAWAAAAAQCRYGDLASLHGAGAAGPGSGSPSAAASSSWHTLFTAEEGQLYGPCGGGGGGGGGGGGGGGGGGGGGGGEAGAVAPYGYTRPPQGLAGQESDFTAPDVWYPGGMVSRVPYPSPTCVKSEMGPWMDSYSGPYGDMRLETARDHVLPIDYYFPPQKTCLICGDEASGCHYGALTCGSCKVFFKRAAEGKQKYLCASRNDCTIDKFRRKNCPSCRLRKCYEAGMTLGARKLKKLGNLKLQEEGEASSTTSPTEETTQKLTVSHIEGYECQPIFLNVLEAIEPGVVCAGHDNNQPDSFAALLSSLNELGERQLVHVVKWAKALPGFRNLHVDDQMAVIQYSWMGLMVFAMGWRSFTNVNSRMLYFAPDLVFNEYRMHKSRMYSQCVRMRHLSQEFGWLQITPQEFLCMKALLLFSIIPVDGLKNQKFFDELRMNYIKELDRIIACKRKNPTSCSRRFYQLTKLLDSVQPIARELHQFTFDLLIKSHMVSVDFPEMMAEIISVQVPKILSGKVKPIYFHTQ
smiles,measurement,setting,value
CC(O)(CS(=O)(=O)c1ccc(F)cc1)C(=O)Nc1ccc(C#N)c(C(F)(F)F)c1 (centres unmarked) [Bicalutamide],Cytotoxicity (IC50) in MDA-kb2,[1],Non toxic
"O=C(O)c1ccccc1Nc1cccc(C(F)(F)F)c1 [Compound 1, flufenamic acid]",Block of AR transcription activity,[2],able to block AR transcription activity
O=C(O)c1ccccc1Nc1ccc(Cc2ccccc2)cc1 [Compound 20],"% inhibition (in brackets), transcriptional inhibition in MDA-kb2",[3],75%
same,"Binding to the DHT (hormone) binding site of AR-LBD, in words",[4],low micromolar range
same,Permeability,[5],98 ± 31 10^‒6 cm s^‒1
same,Retention in membrane,[5],89%
same,Cytotoxicity (IC50) in MDA-kb2,[1],Non toxic
"C[C@]12CCC(=O)C[C@@H]1CC[C@@H]1[C@@H]2CC[C@]2(C)[C@@H](O)CC[C@@H]12 [DHT, dihydrotestosterone]",FKBP51 induction,[6],4–5 fold
CC(C)(O)C(=O)Nc1ccc([N+](=O)[O-])c(C(F)(F)F)c1 [Hydroxyflutamide],Papp,[7],183 ± 29 ×10⁻⁶ cm/s
same,Retention in membrane,[5],75%
same,Cytotoxicity (IC50) in MDA-kb2,[1],Non toxic
